The values below come from patent publication US8399510B2, “Method of activating NK cells” (University of South Florida, priority 2007, dated 2013).

One data set addresses SHP1 (Homo sapiens, UniProt P29350). Briefly: PTP inhibition assay (DiFMUP substrate), SHP1. The format is biochemical. As for the experimental part:
(§1) PTP activity was measured using the fluorogenic 6,8-difluoro-4-methylumbelliferyl phosphate (DiFMUP; Invitrogen, Carlsbad, Calif.) as the substrate. Each reaction contained 25 mM HEPES, 50 mM NaCl, 0.05% Triton, 1 mM dithiothreitol, 20 μM DiFMUP, 10 nM Microcystin LR, 20 nM GST-PTP, and 10 μl of test compound or dimethyl sulfoxide (solvent) in a total reaction volume of 100 μl in black 96-well plates. Reaction was initiated by addition of DiFMUP, and the incubation time was 30 min at room temperature. DiFMUP fluorescence signal was measured at an excitation of 355 nm and an emission of 460 nm with a plate reader (Victor2 1420; PerkinElmer Wallac, Gaithersburg, Md.). IC50 was defined as the concentration of an inhibitor that caused a 50% decrease in the PTP activity. For IC50 determination, eight concentrations of NSC119910 at one-third dilution (˜0.5 log) were tested. The ranges of NSC119910 concentrations used in each PTP assay were determined from preliminary trials. Each experiment was performed either in triplicate or duplicate, and IC50 data were derived from at least two independent experiments. The curve-fitting program Prism 4 (GraphPad Software, San Diego, Calif.) was used to calculate IC50 values.

In the next data set the target is T1, SHP2 (Homo sapiens, UniProt Q06124).
T1 sequence (Q06124 1-593): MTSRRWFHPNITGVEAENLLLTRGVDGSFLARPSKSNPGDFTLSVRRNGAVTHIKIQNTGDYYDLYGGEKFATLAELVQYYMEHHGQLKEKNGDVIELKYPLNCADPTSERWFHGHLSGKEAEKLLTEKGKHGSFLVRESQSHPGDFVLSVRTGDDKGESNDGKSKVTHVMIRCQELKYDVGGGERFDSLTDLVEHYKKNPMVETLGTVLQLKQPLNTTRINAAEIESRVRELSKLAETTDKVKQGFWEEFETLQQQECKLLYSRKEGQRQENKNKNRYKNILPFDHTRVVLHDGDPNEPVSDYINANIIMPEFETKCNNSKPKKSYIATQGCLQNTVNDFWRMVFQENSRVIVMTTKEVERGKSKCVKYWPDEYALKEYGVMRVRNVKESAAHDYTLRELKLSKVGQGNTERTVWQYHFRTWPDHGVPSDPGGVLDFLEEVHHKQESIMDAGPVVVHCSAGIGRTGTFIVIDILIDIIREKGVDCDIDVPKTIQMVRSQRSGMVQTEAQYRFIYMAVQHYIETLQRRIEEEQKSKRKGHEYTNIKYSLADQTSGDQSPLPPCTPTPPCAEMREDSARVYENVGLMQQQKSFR
Briefly: PTP inhibition assay (DiFMUP substrate), SHP2. Format: biochemical. The following applies: in vitro phosphatase activity, versus PTP1b. The protocol: as §1

In the next data set the test system is SHIP−/− LAK cells. Briefly: 4 hour 51Cr release cytolysis assay with SHIP−/− LAK cells. Format: cell-based. As for the experimental part:
(§2) NK cells were magnetically enriched from whole splenocytes using the Miltenyi mouse NK cell enrichment kit and an Automac (Miltenyi) per the manufacturer's instructions. Magnetically enriched cells were plated at 2×10^6 cells/mL in the presence of 2000 units/mL human rIL-2 (Proleukin). Non-adherent cells were removed on day 2 and media replaced as necessary. On day 7 a standard 4 hour chromium release assay was performed. Briefly, target cells were loaded with 100 μCi of 51Cr per 1×10^6 cells for 60 minutes at 37° C. The target and lymphokine activate killer (LAK) 3 cells were then incubated together at 37° C. for 4 hours in the presence of inhibitors or media alone. Supernatants were collected and measured for radioactivity on a gamma counter (Perkin Elmer Wizard1470).
(§3) All experiments using sodium orthovanadate (NaOV) were performed with 100 μM activated NaOV. NaOV was activated by adjusting the pH of a 200 mM stock to pH 10.0 by the addition NaOH or HCl followed by boiling until the solution becomes colorless and then cooling to room temperature. This process is then repeated until the pH of the NaOV stabilizes at 10.0 (44). NaOV was added to the wells of the killing assay with the LAK cells 15 to 30 min prior to adding target cells at room temperature. NSC119910 was obtained from the Drug Synthesis and Chemistry Branch, Developmental Therapeutics Program, Division of Cancer Treatment and Diagnosis, NCI. The structure of NSC119910 was confirmed by proton NMR using a Varian Mercury-Plus, Oxford AS400 spectrometer. The 1H NMR spectrum was recorded at 400 MHz using DMSO-d6 as solvent and tetramethylsilane (TMS) as an internal standard. Chemical shift values are reported in parts per million (δ). […] 25 times this IC50 was established as the effective dose for NK cell based assays. NSC119910 was added immediately before the addition of target cells on ice. Both compounds were tested at their working concentration for the ability to kill and/or lyse the target cells without LAK cells being present.
Given the inappropriate degree of SHP1 recruitment to 2B4 in SHIP^−/− NK cells, the possibility of using chemical inhibitors to block its tyrosine phosphatase activity was explored to determine if this could restore killing of complex targets by SHIP-deficient NK cells. Standard four-hour 51Cr release assays were performed with SHIP^−/− (−/−) or WT (+/+) LAK cells, with a ratio of 30:1 and 3000 target cells for all conditions. NaOV (100 μM) was used first, a broadly acting tyrosine phosphatase inhibitor to counteract the effects of the SHP1 over-recruitment to 2B4, with a medium-only negative control. […] In fact, SHIP-deficient NK cytolysis of RMA parental targets exceeds that of WT LAK cells. This supernormal killing has been consistently observed against RMA targets in three separate studies with NaOV-treated SHIP^−/− LAK cells. This finding indicates phosphatase inhibition can restore the ability of SHIP^−/− NK cells to kill complex targets via NKG2D, while also expanding the capacity of SHIP-deficient NK cells to kill tumor cells in the absence of ligands for NKG2D.
Next, the ability of NSC119910 to restore killing in the SHIP^−/− NK cell was tested. The effective in vitro dose at which NSC119910 was able to restore SHIP^−/− cytotoxicity was determined in a dose titration experiment. Through this, 67.32 μM was identified as the effective dose (data not shown). This concentration of 67.32 μM of NSC119910 was used for all subsequent standard 4-hour 51Cr release assays, performed with SHIP^−/− (^−/−) or WT (^+/+) LAK cells and using a ratio of 30:1 and 3000 target cells in the presence of 67.32 μM NCI119910 or media alone (−). […] The experiments were repeated, using M157+ BaF3 transfectants were used as targets (FIG. 5D). SHIP^−/− (^−−) or WT (^++) cells were incubated with 67.32 μM NSC119910 (119910) or media alone (CNT) for 4 hours. The cells were then stained for NK1.1, TCR-β and NKG2D and analyzed for NKG2D expression. […]

Another data set has as its system WT LAK cells. Briefly: 4 hour 51Cr release cytolysis assay with WT LAK cells. Format: cell-based, mouse. The protocol: as §2, §3
Given the inappropriate degree of SHP1 recruitment to 2B4 in SHIP^−/− NK cells, the possibility of using chemical inhibitors to block its tyrosine phosphatase activity was explored to determine if this could restore killing of complex targets by SHIP-deficient NK cells. Standard four-hour 51Cr release assays were performed with SHIP^−/− (−/−) or WT (+/+) LAK cells, with a ratio of 30:1 and 3000 target cells for all conditions. […]
Next, the ability of NSC119910 to restore killing in the SHIP^−/− NK cell was tested. The effective in vitro dose at which NSC119910 was able to restore SHIP^−/− cytotoxicity was determined in a dose titration experiment. […] The cells were then stained for NK1.1, TCR-β and NKG2D and analyzed for NKG2D expression. […]

The next data set deals with NKG2D. Briefly: NKG2D expression on LAK cells (staining for NK1.1, TCR-β, NKG2D). Format: cell-based, mouse. The following applies: 67.32 μM NSC119910, 4 hours; SHIP−/− or WT cells. The protocol: Next, the ability of NSC119910 to restore killing in the SHIP^−/− NK cell was tested. The effective in vitro dose at which NSC119910 was able to restore SHIP^−/− cytotoxicity was determined in a dose titration experiment. Through this, 67.32 μM was identified as the effective dose (data not shown). This concentration of 67.32 μM of NSC119910 was used for all subsequent standard 4-hour 51Cr release assays, performed with SHIP^−/− (^−/−) or WT (^+/+) LAK cells and using a ratio of 30:1 and 3000 target cells in the presence of 67.32 μM NCI119910 or media alone (−). […] The experiments were repeated, using M157+ BaF3 transfectants were used as targets (FIG. 5D). SHIP^−/− (^−−) or WT (^++) cells were incubated with 67.32 μM NSC119910 (119910) or media alone (CNT) for 4 hours. The cells were then stained for NK1.1, TCR-β and NKG2D and analyzed for NKG2D expression. The addition of NSC119910 to LAK cells had no effect on the expression levels of NKG2D (FIG. 5E). The experiments were also performed with m157^+ BaF3 targets. […] Although the increase is not as dramatic as observed with NKG2D mediated cytolysis, this increase has been observed consistently in multiple cytolysis assays with the m157^+ BaF3 targets. […]

Setting [1] is: 67.32 μM NSC119910, ratio 30:1, 3000 target cells.
[2] abbreviates: 100 μM NaOV, ratio 30:1, 3000 target cells.

Sequence of SHP1 (P29350 whole entry): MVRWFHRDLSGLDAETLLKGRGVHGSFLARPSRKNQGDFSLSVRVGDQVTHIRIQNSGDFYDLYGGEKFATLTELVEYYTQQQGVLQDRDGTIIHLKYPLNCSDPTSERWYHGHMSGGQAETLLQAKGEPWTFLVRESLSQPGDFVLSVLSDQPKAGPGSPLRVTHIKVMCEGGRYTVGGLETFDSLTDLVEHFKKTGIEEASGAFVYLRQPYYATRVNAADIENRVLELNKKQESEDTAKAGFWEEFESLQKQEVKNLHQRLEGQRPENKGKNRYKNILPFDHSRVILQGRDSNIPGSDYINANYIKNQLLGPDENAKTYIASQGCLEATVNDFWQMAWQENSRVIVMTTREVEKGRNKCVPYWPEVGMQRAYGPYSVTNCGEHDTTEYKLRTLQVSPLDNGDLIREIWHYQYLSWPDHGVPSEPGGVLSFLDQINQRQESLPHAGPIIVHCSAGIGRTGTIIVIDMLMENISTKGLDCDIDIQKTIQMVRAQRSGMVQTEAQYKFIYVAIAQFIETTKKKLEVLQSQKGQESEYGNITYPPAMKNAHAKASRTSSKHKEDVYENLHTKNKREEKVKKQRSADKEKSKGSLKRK

Broadly, the IC50 is the point on the concentration scale where inhibition reaches its midpoint. Consider `O=C(O)C1CCCCC1c1c2ccc(=O)c(O)c-2oc2c(O)c(O)ccc12` (stereo not shown) [NSC119910], for which the “selectivity to SHP1 over PTP1b” value at SHP1 (in vitro phosphatase activity, versus PTP1b) is given as “approximately 10 fold”. Also, on SHP1 (purified SHP1, read-out: cell free, in vitro IC50 using purified SHP1), the IC50 was found to be 2700 nM. In addition, on SHP2, the “selectivity to SHP2 over PTP1b” value is “approximately 100 fold”. For the same molecule, in the data set on SHIP−/− LAK cells (67.32 μM NSC119910), the “killing of m157+ BaF3 targets by SHIP−/− NK cells” value is “increased”. Moreover, in the data set on SHIP−/− LAK cells (setting [1]), the “killing of Rae1+ RMA targets by SHIP−/− NK cells” value was “significantly restored killing” and the “killing of parental RMA targets by SHIP−/− NK cells” value is “significantly restored killing”. Besides, the “effective in vitro dose restoring SHIP−/− cytotoxicity” value in the data set with SHIP−/− LAK cells (dose titration experiment (data not shown)) worked out at 67.32 µM. The “cytolytic activity of WT NK cells against Rae1+ targets” value in the data set on WT LAK cells (setting [1]) was “no effect”. The “killing of m157+ cells by WT LAK cells” value with WT LAK cells (NSC119910, compared with the increase seen with NaOV) is recorded as “the same increase of killing of m157^+ cells by WT LAK cells was not seen”. For the same molecule, the “killing of RMA cells by WT NK cells” value with WT LAK cells (in the presence of NSC119910) is listed as “increase”. Further, the “expression levels of NKG2D on LAK cells” value in the data set on NKG2D is reported as “no effect”.
For the molecule `[Na+].[Na+].[Na+].[O]=[V]([O-])([O-])[O-]` [NaOV, Sodium orthovanadate, reference compound], in the data set on SHIP−/− LAK cells (100 μM NaOV), the “killing of m157+ BaF3 targets by SHIP−/− NK cells” value is on record as “able to increase the capacity” and the “killing of parental BaF3 targets by SHIP−/− NK cells” value was “able to increase the capacity”. In addition, in the data set with SHIP−/− LAK cells (setting [2]), the “killing of RMA parental targets by SHIP−/− LAK cells” value is reported as “increased the capacity” and the “killing of Rae1+ RMA targets by SHIP−/− LAK cells” value is “restore cellular ability to mediate efficient killing”. In the data set on WT LAK cells (setting [2]), the “killing of RMA or RMA-Rae1+ targets by WT LAK cells” value is “increased killing by WT LAK cells was not seen”.
